Columns and labels:
[1] = molecular target: T1, Avi-KRAS G12D (1-169) GppNHp/RAF1 RBD-3xFLAG (52-151) (Homo sapiens, UniProt P01116, G12D); assay: Raf1-KRAS G12D-GppNHP disruption HTRF assay (Biological Example 1); type: binding; details: KRAS G12D-GppNHp/RAF1 RBD HTRF
T1 construct: Avi-KRAS G12D (1-169)
Method in brief: (§1)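 First, protein mix in Tris pH 7.5 buffer with NaCl, MgCl2, BSA, Tween and 10% DMSO is incubated 1 h at room temperature. Next, reagent mix is added and incubated a further 1 h at room temperature. Finally, HTRF is read and activity normalized to DMSO.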

[2] = molecular target: T2, Avi-KRAS G12R (1-169) GppNHp/RAF1 RBD-3xFLAG (52-151) (Homo sapiens, UniProt P01116, G12R); assay: Raf1-KRAS G12R-GppNHP disruption HTRF assay (Biological Example 1); type: binding; details: KRAS G12R-GppNHp/RAF1 RBD HTRF
T2 construct: Avi-KRAS G12R (1-169)
Method in brief: as §1

[3] = molecular target: T3, Avi-KRAS G12V (1-169) GppNHp/RAF1 RBD-3xFLAG (52-151) (Homo sapiens, UniProt P01116, G12V); assay: Raf1-KRAS G12V-GppNHP disruption HTRF assay (Biological Example 1); type: binding; details: KRAS G12V-GppNHp/RAF1 RBD HTRF
T3 construct: Avi-KRAS G12V (1-169)
Method in brief: as §1

[4] = molecular target: T4, Avi-KRAS G12C (2-169) GTP/RAF1 RBD-3xFLAG (51-131) (Homo sapiens, UniProt P01116, G12C); assay: Raf1-KRAS G12C-GTP disruption HTRF assay (Biological Example 3); type: binding; details: KRAS G12C, GTP-loaded
T4 construct: Avi-KRAS G12C (2-169)
Method in brief: (§2)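 Compounds were titrated 10-point, 3-fold from 30 μM against preformed KRAS-GTP:RAF1 RBD (51-131) complexes at 50 nM, using KRAS 2-169 as WT, G12C, G12D or G12V. After 1 h at room temperature in Tris pH 7.5 buffer with MgCl2 and 10% DMSO, time-resolved fluorescence was read. Results are percent activity versus DMSO.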

[5] = molecular target: T5, Avi-KRAS G12V (2-169) GTP/RAF1 RBD-3xFLAG (51-131) (Homo sapiens, UniProt P01116, G12V); assay: Raf1-KRAS G12V-GTP disruption HTRF assay (Biological Example 3); type: binding; details: KRAS G12V, GTP-loaded
T5 construct: Avi-KRAS G12V (2-169)
Method in brief: as §2

SW620 cells (KRAS G12V) = assay: Cell-based pERK HTRF assay in SW620 cell (Biological Example 4)
Method in brief: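 This assay measures inhibition of ERK phosphorylation downstream of KRAS G12V in intact SW620 cells. Compounds are applied for 4 h over nine half-log concentrations starting at 1 μM, and pERK is quantified by HTRF.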

[6] = Homo sapiens, SW-620, SW620 (KRAS G12V) cells
[7] = Homo sapiens, SW-620, SW620 (KRAS G12V) cells, pERK HTRF
[8] = SW620 (KRAS G12V) cells, pERK HTRF

T3 sequence (P01116 1-169 isoform P01116-2 G12V): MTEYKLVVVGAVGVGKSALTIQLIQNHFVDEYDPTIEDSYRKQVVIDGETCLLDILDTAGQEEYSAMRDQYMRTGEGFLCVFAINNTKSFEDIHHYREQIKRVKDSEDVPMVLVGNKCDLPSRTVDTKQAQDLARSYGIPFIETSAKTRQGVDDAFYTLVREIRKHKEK
T2 sequence (P01116 1-169 isoform P01116-2 G12R): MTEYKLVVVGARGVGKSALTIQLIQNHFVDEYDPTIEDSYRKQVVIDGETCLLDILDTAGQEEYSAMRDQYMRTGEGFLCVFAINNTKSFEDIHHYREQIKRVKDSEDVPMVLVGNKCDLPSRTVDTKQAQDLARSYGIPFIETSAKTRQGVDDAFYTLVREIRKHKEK
T1 sequence (P01116 1-169 isoform P01116-2 G12D): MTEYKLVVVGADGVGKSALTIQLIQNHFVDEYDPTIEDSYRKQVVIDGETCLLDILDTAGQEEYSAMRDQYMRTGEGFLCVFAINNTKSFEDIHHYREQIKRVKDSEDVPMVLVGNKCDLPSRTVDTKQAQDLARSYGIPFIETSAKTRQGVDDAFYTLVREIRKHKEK
T5 sequence (P01116 2-169 isoform P01116-2 G12V): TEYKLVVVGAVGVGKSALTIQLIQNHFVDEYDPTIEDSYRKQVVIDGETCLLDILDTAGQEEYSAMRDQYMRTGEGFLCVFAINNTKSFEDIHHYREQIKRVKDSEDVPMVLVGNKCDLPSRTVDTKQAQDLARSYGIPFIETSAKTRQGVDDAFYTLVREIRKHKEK
T4 sequence (P01116 2-169 isoform P01116-2 G12C): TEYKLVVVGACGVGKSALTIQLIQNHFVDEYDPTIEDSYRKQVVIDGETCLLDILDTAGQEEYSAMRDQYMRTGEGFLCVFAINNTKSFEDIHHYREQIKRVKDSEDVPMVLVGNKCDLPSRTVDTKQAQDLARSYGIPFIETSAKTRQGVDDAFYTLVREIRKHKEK

IC50 [1] [nM] | IC50 [2] [nM] | IC50 [3] [nM] | IC50 [4] [nM] | IC50 [5] [nM] | IC50 (SW620 cells (KRAS G12V); [6]) [nM] | IC50 (SW620 cells (KRAS G12V); [7]) [nM] | IC50 (SW620 cells (KRAS G12V); [8]) [nM] | IC50 (SW620 cells (KRAS G12V); SW620 (KRAS G12V) cells) [nM] | SMILES
100 to 1000 | 100 to 1000 | 100 to 1000 | 100 to 1000 | 100 to 1000 | < 100 | < 100 | – | – | CCN(c1nc(OC[C@@]23CCCN2C[C@H](F)C3)nc2c(F)c(-c3ccc(F)c4sc(N)c(C#N)c34)c(C(F)(F)F)cc12)[C@@H]1C[C@@H](C)N(C(C)=O)C1 (atropisomer, axis not shown) [Compound 527]
< 100 | < 100 | 100 to 1000 | 100 to 1000 | 100 to 1000 | < 100 | < 100 | – | – | CCN(c1nc(OC[C@@]23CCCN2C[C@H](F)C3)nc2c(F)c(-c3ccc(F)c4sc(N)c(C#N)c34)c(C(F)(F)F)cc12)[C@H]1C[C@@H]2COC(=O)N2C1 (atropisomer, axis not shown) [Compound 519]
< 100 | < 100 | < 100 | ≤ 100 | ≤ 100 | < 100 | – | < 100 | – | CCC(=O)N1CC[C@@H](N(CC)c2nc(OC[C@@]34CCCN3C[C@H](F)C4)nc3c(F)c(-c4ccc(F)c5sc(N)c(C#N)c45)c(C(F)(F)F)cc23)[C@H]1C (atropisomer, axis not shown) [Compound 523]
< 100 | < 100 | < 100 | ≤ 100 | ≤ 100 | < 100 | < 100 | – | – | CCN(c1nc(OC[C@@]23CCCN2C[C@H](F)C3)nc2c(F)c(-c3ccc(F)c4sc(N)c(C#N)c34)c(C(F)(F)F)cc12)[C@H]1CCN(C(=O)C(C)C)C1 (single isomer, unassigned) [Compound 469]
< 100 | < 100 | 100 to 1000 | 100 to 1000 | 100 to 1000 | < 100 | < 100 | – | – | Cc1c(C(=O)N(C)C)nn2c1CN(c1nc(OC[C@@]34CCCN3C[C@H](F)C4)nc3c(F)c(-c4ccc(F)c5sc(N)c(C#N)c45)c(C(F)(F)F)cc13)CC2 [Compound 501]
100 to 1000 | 100 to 1000 | 100 to 1000 | 100 to 1000 | 100 to 1000 | < 100 | < 100 | – | – | CCN(c1nc(OC[C@@]23CCCN2C[C@H](F)C3)nc2c(F)c(-c3ccc(F)c4sc(N)c(C#N)c34)c(C(F)(F)F)cc12)[C@@H]1C[C@H]2CCC(=O)N2C1 (atropisomer, axis not shown) [Compound 532]
1000 to 10000 | 1000 to 10000 | 1000 to 10000 | – | – | – | < 100 | – | – | Cc1cc2n(n1)CCN(c1nc(OCC34CCCN3CC(F)C4)nc3c(F)c(-c4ccc(F)c5sc(N)c(C#N)c45)c(C(F)(F)F)cc13)C2 (stereo not drawn) [Compound 484]
< 100 | < 100 | < 100 | 100 to 1000 | ≤ 100 | < 100 | < 100 | – | – | CCN(c1nc(OC[C@@]23CCCN2C[C@H](F)C3)nc2c(F)c(-c3ccc(F)c4sc(N)c(C#N)c34)c(C(F)(F)F)cc12)[C@@H]1CC(=O)N(C2CC2)C1 [Compound 537]
< 100 | < 100 | < 100 | – | – | – | < 100 | – | – | CCN(c1nc(OC[C@@]23CCCN2C[C@H](F)C3)nc2c(F)c(-c3ccc(F)c4sc(N)c(C#N)c34)c(C(F)(F)F)cc12)[C@H]1C[C@H](C)N(C(=O)C2CC2)C1 [Compound 470]
– | – | – | ≤ 100 | ≤ 100 | < 100 | – | – | – | CCN(c1nc(OC[C@@]23CCCN2C[C@H](F)C3)nc2c(F)c(-c3ccc(F)c4sc(N)c(C#N)c34)c(C(F)(F)F)cc12)[C@H]1CCN(C(=O)N(C)C)C1 (atropisomer, axis not shown) [Compound 540, (3S)-3-[[7-(2-amino-3-cyano-7-fluoro-benzothiophen-4-yl)-8-fluoro-2-[[(2R,8S)-2-fluoro-1,2,3,5,6,7-hexahydropyrrolizin-8-yl]methoxy]-6-(trifluoromethyl)quinazolin-4-yl]-ethyl-amino]-N,N-dimethyl-pyrrolidine-1-carboxamide]
< 100 | < 100 | < 100 | 100 to 1000 | 100 to 1000 | < 100 | < 100 | – | – | CN(C)C(=O)c1nn2c(c1Cl)CN(c1nc(OC[C@@]34CCCN3C[C@H](F)C4)nc3c(F)c(-c4ccc(F)c5sc(N)c(C#N)c45)c(C(F)(F)F)cc13)CC2 [Compound 517]
100 to 1000 | 100 to 1000 | 100 to 1000 | 100 to 1000 | 100 to 1000 | < 100 | < 100 | – | – | CCN(c1nc(OC[C@@]23CCCN2C[C@H](F)C3)nc2c(F)c(-c3ccc(F)c4sc(N)c(C#N)c34)c(C(F)(F)F)cc12)[C@@H]1CC(=O)N(C)C1 [Compound 520]
< 100 | < 100 | < 100 | 100 to 1000 | 100 to 1000 | < 100 | < 100 | – | – | CCN(c1nc(OC[C@@]23CCCN2C[C@H](F)C3)nc2c(F)c(-c3ccc(F)c4sc(N)c(C#N)c34)c(C(F)(F)F)cc12)[C@H]1C[C@H](C)N(C(=O)C2COC2)C1 (atropisomer, axis not shown) [Compound 539]
< 100 | < 100 | < 100 | 100 to 1000 | ≤ 100 | < 100 | – | < 100 | – | CCN(c1nc(OC[C@@]23CCCN2C[C@H](F)C3)nc2c(F)c(-c3ccc(F)c4sc(N)c(C#N)c34)c(C(F)(F)F)cc12)[C@@H]1CCN(C(=O)C2CC2)[C@@H]1C (atropisomer, axis not shown) [Compound 524]
< 100 | < 100 | 100 to 1000 | – | – | – | – | < 100 | – | CCN(c1nc(OC[C@@]23CCCN2C[C@H](F)C3)nc2c(F)c(-c3ccc(F)c4sc(N)c(C#N)c34)c(C(F)(F)F)cc12)[C@H]1CCS(=O)(=O)C1 (atropisomer, axis not shown) [Compound 492]
1000 to 10000 | 1000 to 10000 | 1000 to 10000 | – | – | – | < 100 | – | – | N#Cc1c(N)sc2c(F)ccc(-c3c(C(F)(F)F)cc4c(N5CCn6nc(N7CCOCC7)cc6C5)nc(OC[C@@]56CCCN5C[C@H](F)C6)nc4c3F)c12 [Compound 485]
< 100 | < 100 | < 100 | ≤ 100 | ≤ 100 | – | – | < 100 | < 100 | CCN(c1nc(OC[C@@]23CCCN2C[C@H](F)C3)nc2c(F)c(-c3ccc(F)c4sc(N)c(C#N)c34)c(C(F)(F)F)cc12)[C@H]1CCN(C(=O)OC)C1 (atropisomer, axis not shown) [Compound 541, methyl(3S)-3-[[7-(2-amino-3-cyano-7-fluoro-benzothiophen-4-yl)-8-fluoro-2-[[(2R,8S)-2-fluoro-1,2,3,5,6,7-hexahydropyrrolizin-8-yl]methoxy]-6-(trifluoromethyl)quinazolin-4-yl]-ethyl-amino]pyrrolidine-1-carboxylate]
< 100 | < 100 | < 100 | – | – | – | < 100 | – | – | CCOC(=O)N1CC[C@H](N(CC)c2nc(OC[C@@]34CCCN3C[C@H](F)C4)nc3c(F)c(-c4ccc(F)c5sc(N)c(C#N)c45)c(C(F)(F)F)cc23)C1 [Compound 467]
> 10000 | > 10000 | > 10000 | – | – | – | – | > 1000 | – | CCN(c1nc(OC[C@@]23CCCN2C[C@H](F)C3)nc2c(F)c(-c3ccc(F)c4sc(N)c(C#N)c34)c(C(F)(F)F)cc12)[C@H]1CCN(C(=O)C(C)C)C1 (atropisomer, axis not shown) [Compound 468]
